Laboratory results reported in ChEMBL document CHEMBL1201862, “PubChem BioAssay data set” (2004).
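Briefly, cells in 96-well plates were exposed to five compound concentrations for 48 h, and endpoints were estimated by linear interpolation. GI50 marks 50% less growth.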 Activity calls are given as the source filed them. No stated cut-off is given here; in the data, active = GI50 up to about 1.1 µM and inactive = higher.

What was measured:
Assay in all cases: inhibition of tumour cell growth, NCI panel, 48 h
[1] = tested on: SW-620
[2] = tested on: MDA-MB-435
[3] = tested on: SF-268
[4] = tested on: T47D
[5] = tested on: SNB-75
[6] = tested on: NCI-H226
[7] = tested on: RXF 393
[8] = tested on: HL-60
[9] = tested on: NCI-H23
[10] = tested on: K562
[11] = tested on: Hs-578T
[12] = tested on: OVCAR-8
[13] = tested on: HOP-92
[14] = tested on: SNB-19
[15] = tested on: SF-539
[16] = tested on: A549
[17] = tested on: U-251
[18] = tested on: MDA-MB-231
[19] = tested on: CAKI-1
[20] = tested on: BT-549

Measured: GI50

CCOc1c(Br)cc(Br)cc1C=C(C#N)C#N
inactive: [1] 2.23 µM | [2] 4.18 µM | [3] 5.82 µM | [4] > 10 µM | [5] 7.62 µM | [7] > 10 µM | [9] > 10 µM | [10] 1.16 µM | [11] 3.67 µM | [12] 3.42 µM | [13] 4.19 µM | [14] 5.73 µM | [15] 3.36 µM | [16] > 10 µM | [17] 3.52 µM
active: [6] 0.69 µM | [8] 0.227 µM

Oc1c([Si](c2ccccc2)(c2ccccc2)c2ccccc2)cc2ccccc2c1-c1c(O)c([Si](c2ccccc2)(c2ccccc2)c2ccccc2)cc2ccccc12
inactive: [1] > 100 µM | [2] > 100 µM | [18] > 100 µM | [3] > 100 µM | [4] > 100 µM | [5] > 100 µM | [7] > 100 µM | [8] > 100 µM | [9] > 100 µM | [10] 34.1 µM | [11] > 100 µM | [12] > 100 µM | [13] > 100 µM | [14] > 100 µM | [19] > 100 µM | [15] > 100 µM | [16] > 100 µM | [17] > 100 µM

CN(CCCNC(=O)c1cn(C)c2c1Cc1ccccc1-2)CCCNC(=O)c1cn(C)c2c1Cc1ccccc1-2
inactive: [1] 3.66 µM | [2] 2.21 µM | [18] 13.6 µM | [3] 5.14 µM | [20] 17.1 µM | [6] 17.2 µM | [7] 16.8 µM | [8] 13.3 µM | [9] 14.2 µM | [10] 2.78 µM | [11] 5.85 µM | [12] 5.86 µM | [13] 2.13 µM | [14] 11.4 µM | [19] 14.9 µM | [15] 13.8 µM | [16] 15.8 µM | [17] 7.43 µM

COC(=O)NC(=O)c1cn(CCCOC(=O)CCCCCCCCC(=O)OCCCn2cc(C(=O)NC(=O)OC)c(=O)[nH]c2=O)c(=O)[nH]c1=O
inactive: [1] > 100 µM | [3] 31.3 µM | [5] 22.3 µM | [6] > 100 µM | [7] 29.4 µM | [8] > 100 µM | [9] 39.3 µM | [10] > 100 µM | [12] 23.9 µM | [13] 36.7 µM | [14] 42.4 µM | [19] 28.8 µM | [15] 71.1 µM | [16] > 100 µM

N=C(N)NCCN1CC2CCC(CC2)C1
inactive: [1] > 100 µM | [2] 48.5 µM | [18] > 100 µM | [3] > 100 µM | [4] > 100 µM | [5] 19.7 µM | [6] 80.4 µM | [7] > 100 µM | [9] > 100 µM | [11] 91.4 µM | [12] > 100 µM | [13] 25.6 µM | [14] > 100 µM | [19] > 100 µM | [15] > 100 µM | [16] > 100 µM | [17] > 100 µM

CCN(CC)c1ccc(/N=C2/C=CC(=O)c3ncccc32)c(C)c1
inactive: [1] 2.53 µM | [3] 8.32 µM | [5] 14.8 µM | [6] 18.5 µM | [7] 3.48 µM | [8] 2.19 µM | [9] 5.94 µM | [10] 2.45 µM | [12] 3.42 µM | [13] 6.75 µM | [14] 16.1 µM | [19] 11 µM | [15] 5.56 µM | [16] 11.2 µM | [17] 6.92 µM

COc1cccc(C2CC(=O)c3cccn32)c1 (stereo not given)
inactive: [1] > 100 µM | [2] > 100 µM | [18] 82.6 µM | [3] 69.3 µM | [4] 50.2 µM | [5] > 100 µM | [6] > 100 µM | [7] > 100 µM | [8] 32.4 µM | [9] > 100 µM | [10] > 100 µM | [11] 23.4 µM | [12] > 100 µM | [13] > 100 µM | [14] > 100 µM | [19] > 100 µM | [15] > 100 µM | [16] 94.6 µM | [17] > 100 µM

COc1cc(C2c3cc4c(cc3OC(NNS(=O)(=O)c3ccc(C)cc3)C2C)OCO4)cc(OC)c1O (stereo not given)
inactive: [1] 24.3 µM | [2] 3.21 µM | [18] 12.3 µM | [3] 14.8 µM | [4] 10.1 µM | [5] 3.61 µM | [6] 9.16 µM | [7] 10.5 µM | [8] 9.33 µM | [9] 9.89 µM | [10] 4.61 µM | [11] 16.9 µM | [12] 6.82 µM | [13] 14.5 µM | [14] 16.2 µM | [19] 12.8 µM | [15] 6.53 µM | [16] 11.7 µM | [17] 8.17 µM

CNC(=O)CCCNC(=O)CCCCC(=O)N(C)C
inactive: [1] > 100 µM | [2] > 100 µM | [18] > 100 µM | [3] > 100 µM | [4] > 100 µM | [7] > 100 µM | [9] > 100 µM | [10] > 100 µM | [12] > 100 µM | [14] > 100 µM | [19] > 100 µM | [15] > 100 µM | [16] > 100 µM | [17] > 100 µM

CCOC(=O)N1C(=O)C2C3C=CC(C2C1=O)C1C2C(=O)N(C(=O)OCC)C(=O)C2C31 (stereo not given)
inactive: [1] > 41 µM | [3] > 81.3 µM | [5] > 92 µM | [6] > 100 µM | [7] > 100 µM | [8] 20.3 µM | [9] > 100 µM | [10] > 100 µM | [12] > 100 µM | [13] > 100 µM | [14] > 100 µM | [19] > 100 µM | [15] > 100 µM | [16] > 100 µM | [17] > 68.1 µM

N#Cc1c(N2CCCC2)nsc1Nc1ccc(F)cc1
inactive: [1] > 100 µM | [2] > 100 µM | [18] > 100 µM | [3] > 100 µM | [4] > 100 µM | [6] > 100 µM | [7] > 100 µM | [8] > 100 µM | [9] > 100 µM | [10] > 100 µM | [11] > 100 µM | [12] 78 µM | [13] > 100 µM | [14] > 100 µM | [19] 97.1 µM | [15] > 100 µM | [16] > 100 µM | [17] > 100 µM

CN(C)CCNC(=O)c1cccc2ccc(-c3ccc(-c4ccccc4)cc3)nc12
inactive: [1] 2.11 µM | [3] 3.37 µM | [5] 2.88 µM | [6] 13.1 µM | [7] 2.22 µM | [8] 1.93 µM | [9] 5.69 µM | [10] 2.13 µM | [12] 2.56 µM | [13] 3.02 µM | [14] 11.4 µM | [19] 5.13 µM | [15] 1.8 µM | [16] 2.89 µM | [17] 2.14 µM

O=C1c2ccccc2-c2nc3ccncc3n21
inactive: [1] > 100 µM | [3] > 100 µM | [20] > 100 µM | [5] > 100 µM | [6] > 100 µM | [7] > 100 µM | [8] > 100 µM | [9] > 100 µM | [10] > 100 µM | [12] > 100 µM | [13] > 100 µM | [14] > 100 µM | [19] > 100 µM | [15] > 100 µM | [16] > 100 µM | [17] > 100 µM

C/C(CCN(C)C)=N/O
active: [8] 0.281 µM | [10] 0.292 µM | [12] 0.826 µM | [19] 1.02 µM
inactive: [1] 2.71 µM | [3] 1.49 µM | [5] 16.8 µM | [6] 30 µM | [7] 6.05 µM | [9] 8.32 µM | [13] 9.44 µM | [14] 35.9 µM | [15] 1.14 µM | [16] 1.6 µM | [17] 6.59 µM

O=C(c1ccc(-c2ccccc2)cc1)N(Cc1cccnc1)C(=S)N(Cc1cccnc1)C(=O)c1ccc(-c2ccccc2)cc1
inactive: [1] > 100 µM | [2] 54.6 µM | [18] > 100 µM | [3] > 100 µM | [20] 55 µM | [6] 76.2 µM | [8] 24.5 µM | [9] > 100 µM | [11] > 100 µM | [12] > 100 µM | [13] 8.95 µM | [14] > 100 µM | [19] 27.1 µM | [15] > 100 µM | [16] > 100 µM | [17] > 100 µM
active: [10] 0.394 µM

C=CCNC(=S)N/C=C(\C#N)C(N)=O
inactive: [1] > 100 µM | [2] > 100 µM | [18] > 100 µM | [3] > 100 µM | [4] > 100 µM | [5] > 100 µM | [6] > 100 µM | [7] > 100 µM | [8] > 100 µM | [9] > 100 µM | [10] > 100 µM | [11] > 100 µM | [12] > 100 µM | [14] > 100 µM | [19] > 100 µM | [15] > 100 µM | [16] > 100 µM | [17] > 100 µM
